Test results reported in patent publication US20100004125A1 (priority 2007, published 2010).
Like-named read-outs stand apart in the source and are kept apart here.

Tested on: Pyricularia oryzae
Type: cell-based

Row | SMILES | Efficacy (%) (single compound, Conc 2 ppm, micro titer plate, 405 nm, 7 days after inoculation) | Efficacy (%)
1 | CC1(C)CC/C(=C\c2ccc(Cl)cc2)C1(O)Cn1cncn1 (single isomer, unassigned; (+)) [Triticonazol, (+) E-5-(4-chlorobenzylidene)-2,2-dimethyl-1-(1H-1,2,4-triazol-1-ylmethyl)cyclopentanol] | 44 | –
2 | CN/C(=N\[N+](=O)[O-])NCc1cnc(Cl)s1 [Chlothianidin, (E)-1-(2-chloro-1,3-thiazol-5-ylmethyl)-3-methyl-2-nitroguanidine] | – | 8
